Test results: patent publication US20140072557A1, “MEDICINAL AGENT FOR SUPPRESSING MALIGNANT TUMOR METASTASIS” (priority 2011, published 2014)

What was measured:
A549 cells [1] = assay: Invasion ability, Matrigel-coated Boyden chamber assay, A549 cells; type: cell-based; settings: 1 μM hANP, TGF-β1 1 ng/mL, 40 hours
Description: Using a 6-well dish, the A549 cells were cultured at 1×10^5 cells/well, and the culture medium was replaced with DMEM culture medium free from FBS the next day. After 24 hours of culture, the cells were divided into 3 groups (the control group, the TGF-β1 group, and the TGF-β1+hANP group), and used in the following experiment.
To the culture medium for the TGF-β1+hANP group, the hANP solution was added so that the final concentration of hANP would be […] the control group and the TGF-β1 group, the same amount of physiological saline was added to the culture medium. After 2 hours from the addition, the Boyden chamber assay was performed as follows. Cell culture inserts (8.0 μm pore size, made by Becton, Dickinson and Company) coated with Matrigel were prepared beforehand by placing cell culture inserts on a 6-well dish, adding 300 μL each of a […] Matrigel solution (adjusted with PBS) thereonto, and air drying the inserts.
DMEM culture medium free from FBS for the control group, the same DMEM culture medium containing TGF-β1 (final concentration: 1 ng/mL) for the TGF-β1 group, and the same DMEM culture medium containing hANP (final concentration: 1 μM) and TGF-β1 (final concentration: 1 ng/mL) for the TGF-β1+hANP group were separately added to each well of a 6-well dish in an amount of 1.5 mL. […]

lung cancer patients = assay: Cancer recurrence after cancer resection surgery in lung cancer patients; type: in vivo, human; settings: hANP 0.025 μg/kg/min continuous from surgery for 3 days, about 2 years follow-up, stages IA-III
Description: It is reported that lung cancer patients whose BNP level in the blood is 30 pg/mL or higher are at high risk of postsurgical complications after a cancer removal surgery. In this experiment, lung cancer patients were measured for the BNP level in the blood before cancer removal surgery. A part of the patients having the BNP level in the blood of 30 pg/mL or higher and patients judged to be at high risk of postsurgical complications by the doctor in charge were assigned to the hANP group (52 patients in total; cancer stage breakdown was IA: 26 patients […], IB: 16 patients […], II: 7 patients […], and III: 3 patients (6%)). The control group consisted of patients assigned regardless of the BNP level in the blood (287 patients in total, cancer stage breakdown was IA: 155 patients (54%), IB: 65 patients (23%), II: 35 patients (12%), and III: 32 patients (11%)). To the hANP group, hANP (trade name: HAMP for INJECTION 1000, non-bolus, made by DAIICHI SANKYO Co., Ltd.) was continuously administered at 0.025 μg/kg/min starting during the surgery of lung cancer and the administration continued for 3 days after surgery. Before the surgery and for 4 days after surgery, each patient was measured for the blood pressure (systolic and diastolic), the heart rate, and the urine volume. […]

[2] = tested on: cancer cells (A549, H460, H520, H358 cells); assay: Combined effect of hANP and cisplatin on apoptosis induction in cancer cells; type: cell-based; settings: hANP 1 or 10 μM with cisplatin 1-30 μM, 48 hours
Description: As the cisplatin, CISPLATIN inj. “Maruko” (trade name, Nichi-Iko Pharmaceutical) was used.
Using a 96-well dish, the A549 cells were cultured at 1×10^4 cells/well. The next day, the culture medium was replaced with DMEM culture medium free from FBS. After 24-hours culture, the cells were divided into groups (control group, cisplatin single administration group, 1 μM hANP group, cisplatin+1 μM hANP group, 10 μM hANP group, and cisplatin+10 μM hANP group), and the following experiment was conducted.
To the culture medium, for the hANP addition groups, a hANP solution prepared so that the final concentration of hANP would be 1 or 10 μM was added, whereas for the control group and the cisplatin single administration group, the same amount of physiological saline was added. Further, for the cisplatin addition groups, a cisplatin solution prepared so that the final concentration of cisplatin would be 1, 5, 10, 20, or 30 μM was added (for the control group and the hANP single administration group, the same amount of physiological saline was added). […] 48 hours later, trypan blue staining was performed and the cell viability (number of living cells/total number of all cells) was determined with the use of an automatic cell counter Countess (registered trademark) (Invitrogen). […]

A549 cells [3] = assay: Intracellular cGMP level in A549 cells on natriuretic peptide stimulus; type: cell-based; settings: 1×10^−11 M to 1×10^−6 M, 10 minutes
Description: The A549 cells were cultured in a 24-well dish at 4×10^4 cells/well, and the culture medium was replaced with DMEM culture medium free from FCS the next day. To the culture medium, solutions of hANP, hBNP, and hCNP (final concentration: ten-fold serial dilution from 1×10^−11 M to 1×10^−6 M, the same amount of physiological saline was used as a control) were separately added. After 10 minutes passed, 400 μL of cooled 70% ethanol (containing 0.1 N hydrochloric acid) was added, and ultrasonication was performed for a short time. The treated solution was lyophilized, and the cGMP level was measured using Cyclic GMP Assay kit (made by Yamasa Corp.).

CC[C@H](C)[C@@H]1NC(=O)[C@H](CCCNC(=N)N)NC(=O)[C@H](CC(=O)O)NC(=O)[C@H](CCSC)NC(=O)[C@H](CCCNC(=N)N)NC(=O)CNC(=O)CNC(=O)[C@H](Cc2ccccc2)NC(=O)[C@@H](NC(=O)[C@H](CO)NC(=O)[C@H](CO)NC(=O)[C@H](CCCNC(=N)N)NC(=O)[C@H](CCCNC(=N)N)NC(=O)[C@H](CC(C)C)NC(=O)[C@@H](N)CO)CSSC[C@@H](C(=O)N[C@@H](CC(N)=O)C(=O)N[C@@H](CO)C(=O)N[C@@H](Cc2ccccc2)C(=O)N[C@@H](CCCNC(=N)N)C(=O)N[C@@H](Cc2ccc(O)cc2)C(=O)O)NC(=O)CNC(=O)[C@H](CC(C)C)NC(=O)CNC(=O)[C@H](CO)NC(=O)[C@H](CCC(N)=O)NC(=O)[C@H](C)NC(=O)CNC1=O [hANP, carperitide]
cell invasion via the Matrigel layer (A549 cells [1]): significantly suppressed
early recurrence of cancer (recurrence-free survival) (lung cancer patients): early recurrence was not observed
apoptosis-inducing activity in combination with cisplatin [2]: enhanced
intracellular cGMP level (A549 cells [3]): increased the intracellular cGMP level of the A549 cells in a concentration-dependent manner
